From PMC7313459, “Insights into the Mn^2+ Binding Site in the Agmatinase-Like Protein (ALP): A Critical Enzyme for the Regulation of Agmatine Levels in Mammals” (International Journal of Molecular Sciences, 2020) come the findings set out here.

As a reminder, the Km is the concentration of substrate that gives half-maximal velocity.

This experiment deals with T1, central-ALP (Rattus norvegicus, UniProt A0A8I6ASI2).
T1 construct: gene Limch1
The experiment in a line: urea formation, colorimetric (alpha-isonitrosopropiophenone, […] nm). In kind it is biochemical. The conditions noted are these: 5 mM MnCl2, 50 mM glycine-NaOH pH 9.0, 37 °C; not pre-heated.

T1 sequence (A0A8I6ASI2 141-351): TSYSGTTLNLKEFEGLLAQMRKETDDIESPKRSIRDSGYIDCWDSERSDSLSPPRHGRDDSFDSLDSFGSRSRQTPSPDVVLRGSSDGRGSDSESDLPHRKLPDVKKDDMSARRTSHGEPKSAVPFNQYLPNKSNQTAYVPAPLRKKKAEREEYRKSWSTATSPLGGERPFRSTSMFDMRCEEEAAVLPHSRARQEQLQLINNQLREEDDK

On to `N=C(N)NCCCCN` [agmatine, 1-amino-4-guanidinobutane], for which the Km worked out at 1200 ± 370 µM.
